Measured values: patent US7834217B2, “Method for producing oxidation product of cycloalkane” (Daicel Chemical Industries, Ltd., priority 2006, dated 2010)

Experiment: Solubility in water at 25° C.
Format: physicochemical

O=C1c2ccccc2C(=O)N1O [N-hydroxyphthalimide]
solubility in water (25° C.): ≤ 0.01 g/100 g-H2O
